Test results published in ChEMBL document CHEMBL3621127, “8-Hydroxyquinoline: a privileged structure with a broad-ranging pharmacological potential” (Medchemcomm, 2015).
pIC50: −log10 of the molar value.

Legend:
[1] = Inhibition of Mycobacterium tuberculosis Fructose 1,6-bisphosphate aldolase class 2 expressed in Escherichia coli BL21(DE3) assessed as cleavage of fructose 1,6-bisphosphate by fluorescence assay
[2] = molecular target: Amyloid-beta precursor protein (Homo sapiens, UniProt P05067); assay: Inhibition of self-induced amyloid beta (1 to 42) (unknown origin) aggregation after 48 hrs by ThT assay
[3] = Acute toxicity in po dosed KM mouse measured for 14 days; assay type: organism-based; conditions: in vivo
[4] = Selectivity index, ratio of CC50 for mouse J774A.1 cells to IC50 for amastigote form of Leishmania donovani MHOM//IN/80/Dd8 infected in mouse J774A.1 cells; assay type: functional
Leishmania donovani = assay: Antileishmanial activity against amastigote form of Leishmania donovani MHOM//IN/80/Dd8 infected in mouse J774A.1 cells after 72 hrs by luciferase reporter gene assay; assay type: functional, organism-based; conditions: MHOM//IN/80/Dd8, J774.A1, 72 h

Amyloid-beta precursor protein, sequence (P05067 whole entry): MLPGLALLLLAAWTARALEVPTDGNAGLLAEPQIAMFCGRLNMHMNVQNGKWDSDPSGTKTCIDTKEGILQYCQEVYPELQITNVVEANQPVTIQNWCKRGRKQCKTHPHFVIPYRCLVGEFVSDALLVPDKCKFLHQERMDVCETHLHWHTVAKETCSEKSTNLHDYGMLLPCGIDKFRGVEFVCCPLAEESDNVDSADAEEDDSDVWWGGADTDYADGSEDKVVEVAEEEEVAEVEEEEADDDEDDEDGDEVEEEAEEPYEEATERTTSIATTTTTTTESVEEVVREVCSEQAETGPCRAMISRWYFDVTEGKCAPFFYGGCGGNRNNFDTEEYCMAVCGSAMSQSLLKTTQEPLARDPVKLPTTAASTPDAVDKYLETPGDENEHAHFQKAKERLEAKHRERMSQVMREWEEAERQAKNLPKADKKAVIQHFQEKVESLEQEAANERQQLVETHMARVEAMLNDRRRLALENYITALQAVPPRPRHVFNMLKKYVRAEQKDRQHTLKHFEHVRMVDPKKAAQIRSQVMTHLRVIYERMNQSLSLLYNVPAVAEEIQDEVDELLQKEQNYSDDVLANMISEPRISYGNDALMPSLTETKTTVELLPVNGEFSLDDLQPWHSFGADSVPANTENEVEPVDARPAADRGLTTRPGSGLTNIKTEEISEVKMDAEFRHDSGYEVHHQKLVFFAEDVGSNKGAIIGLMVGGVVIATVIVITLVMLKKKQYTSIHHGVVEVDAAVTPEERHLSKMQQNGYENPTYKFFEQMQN

| SMILES | pIC50 [1] | pIC50 [2] | LD50 at 336 h [3] [mg/kg] | Ratio CC50/IC50 [4] | pIC50 (Leishmania donovani) |
| --- | --- | --- | --- | --- | --- |
| O=C(O)c1ccc2cccc(O)c2n1 | 5.00 | – | – | – | – |
| Oc1ccc(/C=C/c2ccc(O)c3ncccc23)cc1 | – | 5.07 | > 2000 | – | – |
| COc1ccc(OC)c(/C=C/NC(=O)c2cc(O)c3cccc(OC)c3n2)c1 | – | – | – | 25.27 | 5.43 |
| CCCCCCCCCCCCCCCCOP(=O)([O-])OCC[N+](C)(C)C [MILTEFOSINE] | – | – | – | 4.1 | 4.91 |
